Key:
[1] = target: T1, von Hippel–Lindau (VHL) (Homo sapiens, UniProt P40337); experiment: VHL-dependent degradation in VCaP cells: blocked by VL285; inactive hydroxy isomer […]dN does not degrade; type: cell-based
T1 construct: with PIKfyve

[2] = target: T2, PIKfyve (Homo sapiens, UniProt Q9Y2I7); experiment: PROTAC degradation by immunoblot in VCaP cells (DC50), blocked by warhead […] and VL285; TMT proteomics; type: cell-based
T2 construct: with VHL
T2 sequence (Q9Y2I7 2-2098): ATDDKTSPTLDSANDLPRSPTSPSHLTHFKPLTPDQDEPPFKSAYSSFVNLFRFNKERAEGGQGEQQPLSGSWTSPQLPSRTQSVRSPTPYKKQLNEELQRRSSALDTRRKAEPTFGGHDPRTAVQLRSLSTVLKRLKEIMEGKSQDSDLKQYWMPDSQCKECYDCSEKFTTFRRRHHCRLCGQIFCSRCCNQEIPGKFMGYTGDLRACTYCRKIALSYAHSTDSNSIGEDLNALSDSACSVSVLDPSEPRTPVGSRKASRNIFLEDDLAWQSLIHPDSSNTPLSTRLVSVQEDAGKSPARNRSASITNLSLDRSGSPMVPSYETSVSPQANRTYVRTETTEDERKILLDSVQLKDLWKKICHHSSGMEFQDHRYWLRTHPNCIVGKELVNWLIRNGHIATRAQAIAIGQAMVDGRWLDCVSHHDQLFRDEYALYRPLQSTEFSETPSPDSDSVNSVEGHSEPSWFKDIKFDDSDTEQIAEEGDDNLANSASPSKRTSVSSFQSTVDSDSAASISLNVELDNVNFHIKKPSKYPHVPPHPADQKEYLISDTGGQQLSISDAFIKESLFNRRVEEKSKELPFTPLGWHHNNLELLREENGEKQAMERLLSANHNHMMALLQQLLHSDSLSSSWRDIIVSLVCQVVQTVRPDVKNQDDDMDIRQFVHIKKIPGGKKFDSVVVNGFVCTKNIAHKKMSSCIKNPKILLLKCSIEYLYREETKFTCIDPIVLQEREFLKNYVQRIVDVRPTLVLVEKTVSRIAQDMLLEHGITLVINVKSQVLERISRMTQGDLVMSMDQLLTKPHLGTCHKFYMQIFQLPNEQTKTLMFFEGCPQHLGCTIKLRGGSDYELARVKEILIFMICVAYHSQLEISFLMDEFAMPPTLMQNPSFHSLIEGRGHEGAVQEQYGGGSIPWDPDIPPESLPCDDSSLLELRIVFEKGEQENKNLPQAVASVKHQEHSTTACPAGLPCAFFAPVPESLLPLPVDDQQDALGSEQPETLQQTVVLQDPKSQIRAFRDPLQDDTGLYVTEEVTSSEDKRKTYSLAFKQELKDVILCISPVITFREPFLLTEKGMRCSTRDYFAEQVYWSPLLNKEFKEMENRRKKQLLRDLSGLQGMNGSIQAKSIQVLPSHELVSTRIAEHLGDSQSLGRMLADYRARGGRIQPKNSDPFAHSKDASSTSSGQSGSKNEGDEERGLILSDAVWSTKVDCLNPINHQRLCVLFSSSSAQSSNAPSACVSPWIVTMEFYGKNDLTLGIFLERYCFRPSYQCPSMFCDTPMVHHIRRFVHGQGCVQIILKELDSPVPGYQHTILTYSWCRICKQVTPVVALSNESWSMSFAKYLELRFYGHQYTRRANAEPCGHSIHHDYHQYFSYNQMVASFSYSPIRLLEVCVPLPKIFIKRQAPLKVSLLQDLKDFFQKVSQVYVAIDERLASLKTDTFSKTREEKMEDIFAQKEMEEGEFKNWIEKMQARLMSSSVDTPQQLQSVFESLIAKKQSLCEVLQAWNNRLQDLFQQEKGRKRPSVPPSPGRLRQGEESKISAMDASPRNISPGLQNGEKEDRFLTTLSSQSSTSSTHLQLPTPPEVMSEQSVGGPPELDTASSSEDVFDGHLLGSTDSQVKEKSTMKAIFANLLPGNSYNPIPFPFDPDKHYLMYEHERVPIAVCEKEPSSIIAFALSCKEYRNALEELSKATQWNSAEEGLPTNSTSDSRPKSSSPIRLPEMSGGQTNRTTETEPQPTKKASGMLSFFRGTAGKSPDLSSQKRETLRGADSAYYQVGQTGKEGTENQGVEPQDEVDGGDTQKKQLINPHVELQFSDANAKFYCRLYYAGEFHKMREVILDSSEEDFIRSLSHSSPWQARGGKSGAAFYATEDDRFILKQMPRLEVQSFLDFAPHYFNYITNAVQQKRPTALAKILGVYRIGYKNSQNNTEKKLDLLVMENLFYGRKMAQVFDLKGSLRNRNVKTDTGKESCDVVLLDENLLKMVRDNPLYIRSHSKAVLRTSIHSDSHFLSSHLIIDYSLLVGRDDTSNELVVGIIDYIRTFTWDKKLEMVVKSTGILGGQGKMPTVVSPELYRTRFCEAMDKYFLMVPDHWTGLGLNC

T1 sequence (P40337 whole entry): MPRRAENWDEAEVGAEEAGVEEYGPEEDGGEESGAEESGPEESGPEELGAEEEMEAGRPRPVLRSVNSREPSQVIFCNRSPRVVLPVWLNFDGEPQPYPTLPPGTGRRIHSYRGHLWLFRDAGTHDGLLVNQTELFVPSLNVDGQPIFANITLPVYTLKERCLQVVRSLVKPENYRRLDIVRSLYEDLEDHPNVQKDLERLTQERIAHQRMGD
T1 sequence (Q9Y2I7 2-2098 partner): as the sequence (Q9Y2I7 2-2098) above

DC50 [2]: 1.48 nM
Structure (SMILES): Cc1cccc(/C=N/Nc2cc(N3CCOCC3)nc(OCCc3ccc(NC(=O)CCCCC(=O)N[C@H](C(=O)N4C[C@H](O)C[C@H]4C(=O)NCc4ccc(-c5scnc5C)cc4)C(C)(C)C)cc3)n2)c1 [12d, N^1-((S)-1-((2S,4R)-4-Hydroxy-2-((4-(4-methylthiazol-5-yl)benzyl)carbamoyl)pyrrolidin-1-yl)-3,3-dimethyl-1-oxobutan-2-yl)-N^6-(4-(2-((4-(2-((E)-3-methylbenzylidene)hydrazineyl)-6-morpholinopyrimidin-2-yl)oxy)ethyl)phenyl)adipamide]
VHL-dependent degradation in VCaP cells: blocked by VL285; inactive hydroxy isom [1]: PIK5-12d induced PIKfyve degradation in a VHL- and proteasome-dependent manner
